{
  "source": "patent US9561220B2",
  "about": "“Group of alkaloids, the novel autophagic enhancers for treatment of cancers and neurodegenerative conditions thereof” (Macau University of Science and Technology, priority 2014, dated 2017)",
  "key": {"[1]": {"test_system": "Atg7 wild-type mouse embryonic fibroblasts", "experiment": "GFP-LC3 puncta in Atg7 wild-type MEFs", "type": "cell-based", "settings": "20 μM liensinine or 10 μM others, 24 h (FIGS. 4a to 4c)", "method": "GFP-LC3 puncta formation was quantified as previously described. In brief, both Atg7 wild-type (Atg7-wt or Atg7+/+) and deficient (Atg7-/-) mouse embryonic fibroblasts (MEFs) were transfected with GFP-LC3 plasmid and then grown on coverslips in a 6-well plate. The cells were then treated with 20 μM of […], 10 μM of isoliensinine, 10 μM of dauricine, 10 μM of cepharanthine, hernandezine or 10 μM of thalidezine. for 24 h. The cells were then fixed in 4% paraformaldehyde for 20 minutes at room temperature and then rinsed with PBS. Slides were mounted with FluorSaveTM mounting media (Calbiochem, San Diego, Calif.) and examined by fluorescence microscopy. The number of GFP-positive cells with GFP-LC3 puncta formation was examined under the Nikon ECLIPSE 80i microscope. Representative images were captured with CCD digital camera Spot RT3TM (Diagnostic Instruments, Inc., Melville, N.Y.). To quantify for autophagy, the percentage of cells with punctate GFP-LC3 fluorescence was calculated by counting the number of the cells with punctate GFP-LC3 fluorescence in GFP-positive cells. A minimum of 150 cells from 3 randomly selected fields were scored."}, "[2]": {"test_system": "mutant huntingtin aggregate (HDQ55)", "experiment": "Mutant huntingtin aggregate by fluorescence imaging", "type": "cell-based", "settings": "PC 12 cells, fluorescence imaging (FIG. 8c)", "method": "PC 12 cells were transfected transiently with EGFP-HDQ55/74 plasmids for 24 h using Lipofectamine Plus LTX reagent (Invitrogen) according to the manufacturer's protocol. The transfected cells were then treated with […], isoliensinine, dauricine, cepharanthine, hernandezine and thalidezine for 24 h. The removal of mutant huntingtin, ([…]74) was then quantitated by immunoblotting with antibody against EGFP or by immunocytochemistry under fluorescence microscopy."}, "LC3-II": {"test_system": "LC3-II", "experiment": "Detection of autophagic marker protein LC3 conversion (Western blot)", "type": "cell-based, human", "settings": "HeLa cells, Western blot (FIG. 2b)", "method": "After treatments with […], isoliensinine, dauricine, cepharanthine, hernandezine and thalidezine, cells were harvested and lysed in RIPA buffer (Cell Signaling Technologies Inc., Beverly, Mass.). The cell lysates were then resolved by SDS-PAGE. After electrophoresis, the proteins from SDS-PAGE were transferred to nitrocellulose membrane which was then blocked with 5% non-fat dried milk for 60 minutes. The membrane was then incubated with LC3 primary antibodies (1:1000) in TBST overnight at 4° C. After that, the membrane was further incubated with HRP-conjugated secondary antibodies for 60 minutes. Finally, protein bands were visualized by using the ECL Western Blotting Detection Reagents (Invitrogen, Paisley, Scotland, UK)."}, "p70S6K": {"test_system": "p70S6K", "experiment": "Detection of mTOR signaling marker proteins: p70S6K phosphorylation (Western blot)", "type": "cell-based, human", "settings": "HeLa cells, 20 μM liensinine or 10 μM others (FIG. 5a)", "method": "HeLa cells treated with 20 μM of […], 10 μM of isoliensinine, 10 μM of dauricine, 10 μM of cepharanthine, 10 μM of hernandezine and 10 μM of thalidezine were harvested and lysed in RIPA buffer (Cell Signaling). The cell lysates were then resolved by SDS-PAGE. After electrophoresis, the proteins from SDS-PAGE were transferred to nitrocellulose membrane which was then blocked with 5% non-fat dried milk for 60 minutes. The membrane was then incubated with P-p70S6K, p70S6K, P-AMPK, AMPK and actin primary antibodies (1:1000) in TBST overnight at 4° C. respectively. After that, the membrane was further incubated with HRP-conjugated secondary antibodies for 60 minutes. Finally, protein bands were visualized by using the ECL Western Blotting Detection Reagents (Invitrogen)."}, "[3]": {"test_system": "HeLa cells expressing GFP-LC3", "experiment": "GFP-LC3 puncta quantification in the presence of autophagic inhibitor 3-MA", "type": "cell-based, human", "settings": "20 μM liensinine or 10 μM others, 3-MA 5 mM, 4 hours (FIG. 3)", "method": "GFP-LC3 puncta formation was quantified as previously described. In brief, HeLa cells expressing GFP-LC3 were treated with 20 μM of […], or 10 μM of isoliensinine, dauricine, cepharanthine, hernandezine or thalidezine in the presence of autophagic inhibitor, 3-methyl adenine (3-MA, 5 mM), for 4 hours. The cells were then fixed in 4% paraformaldehyde for 20 minutes at room temperature and then rinsed with PBS. Slides were mounted with FluorSaveTM mounting media (Calbiochem) and examined by fluorescence microscopy. To quantify for autophagy, the percentage of cells with punctate GFP-LC3 fluorescence was calculated by counting the number of the cells with punctate GFP-LC3 fluorescence in GFP-positive cells. A minimum of 150 cells from 3 randomly selected fields were scored."}, "[4]": {"test_system": "autophagy deficient cells (Atg7−/− or Atg7-ko) MEFs", "experiment": "Annexin V / propidium iodide flow cytometry in Atg7 wild-type and deficient MEFs", "type": "cell-based, mouse", "method": "Cell viability was measured using an annexin V staining kit (BD Biosciences, San Jose, Calif., USA). Briefly, Atg7 wild-type (Atg7+/+ or Atg7-wt) and Atg7 deficient (Atg7−/− or Atg7-ko) mouse embryonic fibroblasts (MEFs) were treated with the selected alkaloids for 24 h. Cells were then harvested and analysed by multiparametric flow cytometry using FITC-Annexin V and Propidium iodide staining (BD Biosciences, San Jose, Calif., USA) according to the manufacturer's instructions. Flow cytometry was then carried out using a FACSCalibur flow cytometer (BD Biosciences, San Jose, Calif., USA). Data acquisition and analysis was performed with CellQuest (BD Biosciences, San Jose, Calif., USA). Data were obtained from three independent experiments."}, "[5]": {"settings": "MEFs, 24 h, annexin V/PI flow cytometry (FIGS. 6a to 6c)"}},
  "note": "Like-named read-outs stand apart in the source and are kept apart here.",
  "data": [
    {"molecule": "COc1cc2c(cc1OC)[C@@H](Cc1ccc(Oc3cc(C[C@@H]4c5cc(OC)c(OC)cc5CCN4C)ccc3O)cc1)N(C)CC2", "note": "[dauricine]", "values": [
      {"measurement": "GFP-LC3 puncta formation in wild type Atg7 cells", "setting": "[1]", "result": "induce"},
      {"measurement": "formed mutant huntingtin aggregate (HDQ55)", "setting": "[2]", "result": "significantly reduced"},
      {"measurement": "conversion of the autophagic marker LC3-II", "setting": "LC3-II", "result": "induced"},
      {"measurement": "downstream p70S6K phosphorylation", "setting": "p70S6K", "result": "concomitant reduction"},
      {"measurement": "compound-induced GFP-LC3 puncta formation in the presence of autophagic inhibitor (3-MA)", "setting": "[3]", "result": "significant reduction"},
      {"measurement": "cytotoxic effect to autophagy deficient cells (Atg7−/−) versus Atg7 wild-type", "setting": "[4]; [5]", "result": "less cytotoxicity"}
    ]},
    {"molecule": "COc1ccc2cc1Oc1ccc(cc1)C[C@H]1c3cc(c(OC)cc3CCN1C)Oc1c(OC)c(OC)c(OC)c3c1[C@H](C2)N(C)CC3", "note": "[hernandezine]", "values": [
      {"measurement": "GFP-LC3 puncta formation in wild type Atg7 cells", "setting": "[1]", "result": "induce"},
      {"measurement": "formed mutant huntingtin aggregate (HDQ55)", "setting": "[2]", "result": "significantly reduced"},
      {"measurement": "conversion of the autophagic marker LC3-II", "setting": "LC3-II", "result": "induced"},
      {"measurement": "downstream p70S6K phosphorylation", "setting": "p70S6K", "result": "concomitant reduction"},
      {"measurement": "compound-induced GFP-LC3 puncta formation in the presence of autophagic inhibitor (3-MA)", "setting": "[3]", "result": "significant reduction"}
    ]},
    {"molecule": "COc1ccc(C[C@@H]2c3cc(Oc4cc(C[C@@H]5c6cc(O)c(OC)cc6CCN5C)ccc4O)c(OC)cc3CCN2C)cc1", "note": "[isoliensinine]", "values": [
      {"measurement": "GFP-LC3 puncta formation in wild type Atg7 cells", "setting": "[1]", "result": "induce"},
      {"measurement": "formed mutant huntingtin aggregate (HDQ55)", "setting": "[2]", "result": "significantly reduced"},
      {"measurement": "conversion of the autophagic marker LC3-II", "setting": "LC3-II", "result": "induced"},
      {"measurement": "downstream p70S6K phosphorylation", "setting": "p70S6K", "result": "concomitant reduction"},
      {"measurement": "compound-induced GFP-LC3 puncta formation in the presence of autophagic inhibitor (3-MA)", "setting": "[3]", "result": "significant reduction"},
      {"measurement": "cytotoxic effect to autophagy deficient cells (Atg7−/−) versus Atg7 wild-type", "setting": "[4]; [5]", "result": "less cytotoxicity"}
    ]},
    {"molecule": "COc1cc2c(cc1OC)[C@@H](Cc1ccc(O)c(Oc3cc4c(cc3OC)CCN(C)[C@@H]4Cc3ccc(O)cc3)c1)N(C)CC2", "note": "[liensinine]", "values": [
      {"measurement": "GFP-LC3 puncta formation in wild type Atg7 cells", "setting": "[1]", "result": "induce"},
      {"measurement": "formed mutant huntingtin aggregate (HDQ55)", "setting": "[2]", "result": "significantly reduced"},
      {"measurement": "conversion of the autophagic marker LC3-II", "setting": "LC3-II", "result": "induced"},
      {"measurement": "downstream p70S6K phosphorylation", "setting": "p70S6K", "result": "concomitant reduction"},
      {"measurement": "compound-induced GFP-LC3 puncta formation in the presence of autophagic inhibitor (3-MA)", "setting": "[3]", "result": "significant reduction"},
      {"measurement": "cytotoxic effect to autophagy deficient cells (Atg7−/−) versus Atg7 wild-type", "setting": "[4]; [5]", "result": "less cytotoxicity"}
    ]},
    {"molecule": "thalidezine", "values": [
      {"measurement": "GFP-LC3 puncta formation in wild type Atg7 cells", "setting": "[1]", "result": "induce"},
      {"measurement": "formed mutant huntingtin aggregate (HDQ55)", "setting": "[2]", "result": "significantly reduced"},
      {"measurement": "conversion of the autophagic marker LC3-II", "setting": "LC3-II", "result": "induced"},
      {"measurement": "downstream p70S6K phosphorylation", "setting": "p70S6K", "result": "concomitant reduction"},
      {"measurement": "compound-induced GFP-LC3 puncta formation in the presence of autophagic inhibitor (3-MA)", "setting": "[3]", "result": "significant reduction"},
      {"measurement": "cytotoxic effect to autophagy deficient cells (Atg7−/−) versus Atg7 wild-type", "setting": "[4]", "result": "less cytotoxicity"}
    ]}
  ]
}
